According to patent US8338598B2, “Herbicidal pyrido[2,3-B]pyrazines and their use as herbicides” (Syngenta Limited, priority 2008, dated 2012):

Columns and labels:
Format in all cases: in vivo
test plants = assay: Example B1 herbicidal action, post-emergence, overall statement on the test plants; settings: Example B1 protocol, 1000 g/ha, result in words
Description: Seeds of a variety of test species were sown in sterilised standard soil in seed trays each having 96 cells. After cultivation for 8 to 9 days cultivation (post-emergence) under controlled conditions in a climatic chamber (cultivation at 23/17° C., day/night; 13 hours light; 50-60% humidity), the plants were treated with an aqueous spray solution of 1000 mg/l of the active ingredient dissolved in 10% DMSO (dimethyl sulfoxide, CAS RN 67-68-5) as a solvent, equivalent to 1000 g/ha. The plants were grown in the climatic chamber after application at (24/19° C., day/night; 13 hours light; 50-60% humidity) and watered twice daily. After 9 days until the test was evaluated (10=total damage to plant, 0=no damage to plant)

Solanum nigrum [1] = assay: Example B2 herbicidal action, post-emergence, pots in glasshouse; settings: 1000 g/ha, evaluated after 13 days, 10=total damage to plant, 0=no damage to plant
Description: (§1) Seeds of a variety of test species were sown in standard soil in pots. After cultivation for one day (pre-emergence) or after 8 days cultivation (post-emergence) under controlled conditions in a glasshouse (at 24/16° C., day/night; 14 hours light; 65% humidity), the plants were sprayed with an aqueous spray solution derived from the formulation of the technical active ingredient in acetone/water (50:50) solution containing 0.5% Tween 20 (polyoxyethelyene sorbitan monolaurate, CAS RN 9005-64-5). The test plants were then grown in a glasshouse under controlled conditions in a glasshouse (at 24/16° C., day/night; 14 hours light; 65% humidity) and watered twice daily. After 13 days, the test was evaluated (10=total damage to plant; 0=no damage to plant).

Echinochloa crus-galli [2] = assay: as above; settings: 1000 g/ha, evaluated after 13 days, 10=total damage to plant, 0=no damage to plant
Description: as §1

Ipomea hederaceae [3] = assay: as above; settings: 1000 g/ha, evaluated after 13 days, 10=total damage to plant, 0=no damage to plant
Description: as §1

Setaria faberi [4] = assay: as above; settings: 1000 g/ha, evaluated after 13 days, 10=total damage to plant, 0=no damage to plant
Description: as §1

Amaranthus retroflexus [5] = assay: as above; settings: 1000 g/ha, evaluated after 13 days, 10=total damage to plant, 0=no damage to plant
Description: as §1

Solanum nigrum [6] = assay: Example B2 herbicidal action, pre-emergence, pots in glasshouse; settings: 1000 g/ha, evaluated after 13 days, 10=total damage to plant, 0=no damage to plant
Description: as §1

Echinochloa crus-galli [7] = assay: as above; settings: 1000 g/ha, evaluated after 13 days, 10=total damage to plant, 0=no damage to plant
Description: as §1

Ipomea hederaceae [8] = assay: as above; settings: 1000 g/ha, evaluated after 13 days, 10=total damage to plant, 0=no damage to plant
Description: as §1

Setaria faberi [9] = assay: as above; settings: 1000 g/ha, evaluated after 13 days, 10=total damage to plant, 0=no damage to plant
Description: as §1

Amaranthus retroflexus [10] = assay: as above; settings: 1000 g/ha, evaluated after 13 days, 10=total damage to plant, 0=no damage to plant
Description: as §1

Oc1nc2nccnc2c(O)c1-c1ncc(Cl)cc1Cl [Compound A1, 7-(3,5-dichloro-pyrid-2-yl)-pyrido[2,3-b]pyrazine-6,8-diol]
damage to the test plants (test plants): little or no damage

CCOC(=O)Oc1c(-c2ncc(Cl)cc2Cl)c(=O)[nH]c2nccnc12 [Compound A3, Carbonic acid 7-(3,5-dichloro-pyrid-2-yl)-6-oxo-5,6-dihydro-pyrido[2,3-b]pyrazin-8-yl ester ethyl ester]
damage to the test plants (test plants): little or no damage

CS(=O)(=O)Oc1c(-c2ncc(Cl)cc2Cl)c(=O)[nH]c2nccnc12 [Compound A4, methanesulfonic acid 7-(3,5-dichloro-pyrid-2-yl)-6-oxo-5,6-dihydro-pyrido[2,3-b]pyrazin-8-yl ester]
damage to the test plants (test plants): little or no damage

CC(C)C(=O)Oc1c(-c2ncc(Cl)cc2Cl)c(O)nc2nccnc12 [Compound A5, isobutyric acid 7-(3,5-dichloro-pyrid-2-yl)-6-oxo-5,6-dihydro-pyrido[2,3-b]pyrazin-8-yl ester]
damage to the test plants (test plants): little or no damage

Cn1c(=O)c(-c2c(Cl)cncc2Cl)c(OC(=O)C(C)(C)C)c2nccnc21 [Compound A9, 2,2-Dimethyl-propionic acid 7-(3,5-dichloro-pyrid-4-yl)-5-methyl-6-oxo-5,6-dihydro-pyrido[2,3-b]pyrazin-8-yl ester]
SOLNI, damage to plant (Solanum nigrum [1]): 8 | ECHCG, damage to plant (Echinochloa crus-galli [2]): 7 | IPOHE, damage to plant (Ipomea hederaceae [3]): 8 | SETFA, damage to plant (Setaria faberi [4]): 4 | AMARE, damage to plant (Amaranthus retroflexus [5]): 8 | SOLNI, damage to plant (Solanum nigrum [6]): 1 | ECHCG, damage to plant (Echinochloa crus-galli [7]): 5 | IPOHE, damage to plant (Ipomea hederaceae [8]): 5 | SETFA, damage to plant (Setaria faberi [9]): 0 | AMARE, damage to plant (Amaranthus retroflexus [10]): 0

CCn1c(=O)c(-c2c(Cl)cncc2Cl)c(OC(=O)C(C)(C)C)c2nccnc21 [Compound A10, 2,2-Dimethyl-propionic acid 7-(3,5-dichloro-pyrid-4-yl)-5-ethyl-6-oxo-5,6-dihydro-pyrido[2,3-b]pyrazin-8-yl ester]
SOLNI, damage to plant (Solanum nigrum [1]): 9 | ECHCG, damage to plant (Echinochloa crus-galli [2]): 7 | IPOHE, damage to plant (Ipomea hederaceae [3]): 8 | SETFA, damage to plant (Setaria faberi [4]): 6 | AMARE, damage to plant (Amaranthus retroflexus [5]): 9 | SOLNI, damage to plant (Solanum nigrum [6]): 2 | ECHCG, damage to plant (Echinochloa crus-galli [7]): 5 | IPOHE, damage to plant (Ipomea hederaceae [8]): 2 | SETFA, damage to plant (Setaria faberi [9]): 1 | AMARE, damage to plant (Amaranthus retroflexus [10]): 0

CC(C)(C)C(=O)Oc1c(-c2c(Cl)cncc2Cl)c(=O)n(CC(F)F)c2nccnc12 [Compound A11, 2,2-Dimethyl-propionic acid 7-(3,5-dichloro-pyrid-4-yl)-5-(2,2-difluoro-ethyl)-6-oxo-5,6-dihydro-pyrido[2,3-b]pyrazin-8-yl ester]
SOLNI, damage to plant (Solanum nigrum [1]): 8 | ECHCG, damage to plant (Echinochloa crus-galli [2]): 8 | IPOHE, damage to plant (Ipomea hederaceae [3]): 8 | SETFA, damage to plant (Setaria faberi [4]): 8 | AMARE, damage to plant (Amaranthus retroflexus [5]): 9 | SOLNI, damage to plant (Solanum nigrum [6]): 8 | ECHCG, damage to plant (Echinochloa crus-galli [7]): 8 | IPOHE, damage to plant (Ipomea hederaceae [8]): 5 | SETFA, damage to plant (Setaria faberi [9]): 7 | AMARE, damage to plant (Amaranthus retroflexus [10]): 8

O=c1c(-c2c(Cl)cncc2Cl)c(O)c2nccnc2n1CC(F)F [Compound A12, 7-(3,5-Dichloro-pyrid-4-yl)-5-(2,2-difluoro-ethyl)-8-hydroxy-5H-pyrido[2,3-b]pyrazin-6-one]
SOLNI, damage to plant (Solanum nigrum [1]): 10 | ECHCG, damage to plant (Echinochloa crus-galli [2]): 8 | IPOHE, damage to plant (Ipomea hederaceae [3]): 9 | SETFA, damage to plant (Setaria faberi [4]): 8 | AMARE, damage to plant (Amaranthus retroflexus [5]): 9 | SOLNI, damage to plant (Solanum nigrum [6]): 2 | ECHCG, damage to plant (Echinochloa crus-galli [7]): 6 | IPOHE, damage to plant (Ipomea hederaceae [8]): 5 | SETFA, damage to plant (Setaria faberi [9]): 4 | AMARE, damage to plant (Amaranthus retroflexus [10]): 4

CC(C)(C)C(=O)Oc1c(-c2ccc(Cl)nc2Cl)c(=O)[nH]c2nccnc12 [Compound A14, 2,2-dimethyl-propionic acid 7-(2,6-dichloro-pyrid-3-yl)-6-oxo-5,6-dihydro-pyrido[2,3-b]pyrazin-8-yl ester]
SOLNI, damage to plant (Solanum nigrum [1]): 7 | ECHCG, damage to plant (Echinochloa crus-galli [2]): 6 | IPOHE, damage to plant (Ipomea hederaceae [3]): 4 | SETFA, damage to plant (Setaria faberi [4]): 7 | AMARE, damage to plant (Amaranthus retroflexus [5]): 5 | SOLNI, damage to plant (Solanum nigrum [6]): 0 | ECHCG, damage to plant (Echinochloa crus-galli [7]): 4 | IPOHE, damage to plant (Ipomea hederaceae [8]): 0 | SETFA, damage to plant (Setaria faberi [9]): 2 | AMARE, damage to plant (Amaranthus retroflexus [10]): 0

CC(C)(C)C(=O)Oc1c(-c2ccc(Cl)nc2Cl)c(=O)n(CC(F)F)c2nccnc12 [Compound A16, 2,2-dimethyl-propionic acid 7-(2,6-dichloro-pyrid-3-yl)-5-(2,2-difluoro-ethyl)-6-oxo-5,6-dihydro-pyrido[2,3-b]pyrazin-8-yl ester]
SOLNI, damage to plant (Solanum nigrum [1]): 9 | ECHCG, damage to plant (Echinochloa crus-galli [2]): 6 | IPOHE, damage to plant (Ipomea hederaceae [3]): 7 | SETFA, damage to plant (Setaria faberi [4]): 6 | AMARE, damage to plant (Amaranthus retroflexus [5]): 10 | SOLNI, damage to plant (Solanum nigrum [6]): 5 | ECHCG, damage to plant (Echinochloa crus-galli [7]): 2 | IPOHE, damage to plant (Ipomea hederaceae [8]): 2 | SETFA, damage to plant (Setaria faberi [9]): 0 | AMARE, damage to plant (Amaranthus retroflexus [10]): 0

CC(C)(C)C(=O)Oc1c(-c2c(Cl)ccnc2Cl)c(=O)[nH]c2nccnc12 [Compound A17, 2,2-Dimethyl-propionic acid 7-(2,4-dichloro-pyrid-3-yl)-6-oxo-5,6-dihydro-pyrido[2,3-b]pyrazin-8-yl ester]
damage to the test plants (test plants): little or no damage

CC(C)(C)C(=O)Oc1c(-c2c(Cl)ccnc2Cl)c(=O)n(CC(F)F)c2nccnc12 [Compound A18, 2,2-Dimethyl-propionic acid 7-(2,4-dichloro-pyrid-3-yl)-5-(2,2-difluoro-ethyl)-6-oxo-5,6-dihydro-pyrido[2,3-b]pyrazin-8-yl ester]
SOLNI, damage to plant (Solanum nigrum [1]): 9 | ECHCG, damage to plant (Echinochloa crus-galli [2]): 7 | IPOHE, damage to plant (Ipomea hederaceae [3]): 9 | SETFA, damage to plant (Setaria faberi [4]): 7 | AMARE, damage to plant (Amaranthus retroflexus [5]): 10 | SOLNI, damage to plant (Solanum nigrum [6]): 9 | ECHCG, damage to plant (Echinochloa crus-galli [7]): 7 | IPOHE, damage to plant (Ipomea hederaceae [8]): 6 | SETFA, damage to plant (Setaria faberi [9]): 5 | AMARE, damage to plant (Amaranthus retroflexus [10]): 6

O=c1[nH]c2nccnc2c(O)c1-c1ncc(Cl)cc1F [Compound A28]
damage to the test plants (test plants): little or no damage

O=c1[nH]c2nccnc2c(O)c1-c1ncc(C(F)(F)F)cc1Cl [Compound A29]
damage to the test plants (test plants): little or no damage

Cc1nc(Cl)sc1-c1c(O)c2nccnc2[nH]c1=O [Compound B1, 7-(2-chloro-4-methyl-thiazol-5-yl)-8-hydroxy-5H-pyrido[2,3-b]pyrazin-6-one]
damage to the test plants (test plants): little or no damage

Cc1noc(-c2c(OC(=O)C(C)C)c3nccnc3n(C)c2=O)n1 [Compound B6, isobutyric acid 5-methyl-7-(3-methyl-1,2,4-oxadiazol-5-yl)-6-oxo-5,6-dihydro-pyrido[2,3-b]pyrazin-8-yl ester]
damage to the test plants (test plants): little or no damage

CC(C)C(=O)Oc1c(-c2cc(C(F)(F)F)no2)c(=O)[nH]c2nccnc12 [Compound B7, isobutyric acid 6-hydroxy-7-(3-trifluoromethyl-isoxazol-5-yl)-pyrido[2,3-b]pyrazin-8-yl ester]
damage to the test plants (test plants): little or no damage

Cc1cc(-c2c(O)c3nccnc3[nH]c2=O)on1 [Compound B13]
damage to the test plants (test plants): little or no damage

Cc1cc(-c2c(O)c3nccnc3[nH]c2=O)[nH]n1 [Compound B14]
damage to the test plants (test plants): little or no damage

O=c1[nH]c2nccnc2c(O)c1-c1ccno1 [Compound B15]
damage to the test plants (test plants): little or no damage

Cc1cc(-c2c(OC(=O)C(C)C)c3nccnc3[nH]c2=O)on1 [Compound B16]
damage to the test plants (test plants): little or no damage

Cc1cc(-c2c(OC(=O)C(C)(C)C)c3nccnc3[nH]c2=O)on1 [Compound B17]
damage to the test plants (test plants): little or no damage

Cc1cc(-c2c(OC(=O)C(C)C)c3nccnc3[nH]c2=O)[nH]n1 [Compound B18]
damage to the test plants (test plants): little or no damage

Cc1cc(-c2c(OC(=O)C(C)(C)C)c3nccnc3[nH]c2=O)[nH]n1 [Compound B19]
damage to the test plants (test plants): little or no damage

CCn1c(=O)c(-c2cc(C)no2)c(OC(=O)C(C)(C)C)c2nccnc21 [Compound B20]
damage to the test plants (test plants): little or no damage

CCn1c(=O)c(-c2cc(C)no2)c(OC(=O)C(C)C)c2nccnc21 [Compound B21]
damage to the test plants (test plants): little or no damage

CCOc1c(-c2cc(C)n(CC)n2)c(=O)n(CC)c2nccnc12 [Compound B22]
damage to the test plants (test plants): little or no damage

Cc1cc(-c2c(O)c3nccnc3[nH]c2=O)n2nc(C)cc2n1 [Compound C1]
damage to the test plants (test plants): little or no damage

Cc1cc(-c2c(OC(=O)C(C)(C)C)c3nccnc3[nH]c2=O)n2nc(C)cc2n1 [Compound C2]
damage to the test plants (test plants): little or no damage

Cc1cc(-c2c(OC(=O)C(C)(C)C)c3nccnc3n(C)c2=O)n2nc(C)cc2n1 [Compound C3]
damage to the test plants (test plants): little or no damage
